These results are taken from PubChem BioAssay AID743267 (Broad Institute, 2014).

As usually defined, the AC50 is the concentration at which the activity in the assay is half-maximal.

This assay has as its system human bronchial epithelial cells, CFTR corrector, plate reader. Briefly: CFTR ΔF508 corrector activity in bronchial cells, dose response, human bronchial epithelial cells, plate reader, cherry-pick, two tests (AID 743267). Conditions: measured here: test 2 replicate run.
`CNc1ccc2c3c(cccc13)C(=O)N(C)C2=O` displayed an AC50 of 7.59 µM.

The compound `COc1ccc(S(=O)(=O)N(C(=O)C(C)C)c2ccc3oc(=O)sc3c2)cc1` registered an AC50 of 7.6 µM. Regarding `COc1cc(/C=C2\SC(=S)N(NC(=O)c3ccncc3)C2=O)ccc1O`, the concentration at half-maximal activity (AC50) stood at 13.2 µM. On to `COc1ccc(C)cc1Nc1c2c(nc3ccccc13)CCC2`, for which the AC50 turned out to be 0.708 µM. With `CCN(CC)c1ccc(/C=N/NC(=O)c2cnccn2)cc1`, the AC50 was found to be 2.12 µM. Compound `Nc1ccc2c3c(cccc13)C(=O)N(c1ccccc1)C2=O` gave an AC50 of 16 µM. With `CC(=NNC(=O)c1ccncc1)c1ccc2ccccc2c1O` the figure was 7.94 µM.

As for `CC(=O)Nc1cccc(-c2ccnc3c2CC(C)(C(=O)NCc2cccs2)O3)c1` (stereo not drawn), the AC50 was 3.3 µM. Compound `COc1cc(/C=C2/SC(=Nc3ccc(O)cc3)NC2=O)cc(OC)c1O` showed an AC50 of 8.92 µM. In the case of `Cc1cc(Br)cc(/C=N/NC(=O)c2ccc3c(c2)OCO3)c1O`, the AC50 amounted to 6.69 µM. `COc1ccc(-c2ccc3oc(-c4ccc(OC)cc4)c(C#CCO)c3c2)cc1` registered an AC50 of more than 50 µM. To `O=c1c2ccccc2oc2cc(-c3ccc4[nH]ccc4c3)ccc12` belongs 1.94 µM; to `CCN(Cc1ccccc1)c1ccc(/C=N/N=C(N)N)cc1`, 4.74 µM; to `O=C(NCCCN1CCOCC1)c1sc2cc(Cl)ccc2c1Cl`, 1.76 µM. The compound `CCN1CCCC(OC(=O)c2cc(-c3ccccc3Cl)nc3ccccc23)C1` (stereo not drawn) displayed an AC50 of 43.9 µM. For `CCN(CC)c1ccc(/C=N/NC(=O)c2ccco2)c(O)c1`, the AC50 came out at 2.3 µM. The compound `c1ccc(CCN(Cc2ccccc2)Cc2nc(C3CC3)no2)cc1` gave an AC50 of 24.9 µM. To `COc1ccc2c(c1OC)OCC2C` (stereo not drawn) belongs 30.2 µM. Turning to `CC(=O)Oc1c(C)cc(Cl)cc1C(=O)Nc1ccc([N+](=O)[O-])cc1Cl`, the AC50 was 1.38 µM. Compound `COc1ccccc1N1CCN(C(=O)c2ccc(-c3ccc(Cl)cc3)o2)CC1` returned an AC50 of 6.64 µM. With `COc1ccc(NC(=O)C(=O)NCC2CCCN2S(=O)(=O)c2cccs2)cc1` (stereo not drawn) the figure was 3.63 µM. In turn, `O=S(=O)(Nc1ccc(F)cc1Cl)c1ccc(-c2cnc(C3CC3)o2)cc1` yielded an AC50 of 2.23 µM. With `COc1cc2c(C#CCCO)c(-c3ccsc3)oc(=O)c2cc1OC` the figure was 5.52 µM; with `Cc1cc(NC(=O)CN2C(=O)NC3(CCCCCC3)C2=O)ccc1Br`, 8.4 µM. To `COc1ccc(N(C)S(=O)(=O)c2cccc(C(=O)NCC3CCCCC3)c2)cc1` belongs 48.2 µM.

Consider `CCOC1=C2CN(S(=O)(=O)c3ccc(C)cc3)CC[C@@H]2N(S(=O)(=O)c2ccc(C)cc2)[C@H](c2ccccc2)C1`, for which the AC50 is 4.47 µM. Take `CCOc1cc(/C=N/NC(=O)N/N=C/c2ccc(O)c(OCC)c2)ccc1O`: the AC50 came to 4.92 µM. As to `Oc1ccc2ccccc2c1/C=C/c1ccc2c(Br)cc(Br)c(O)c2n1`, the AC50 was 21.5 µM. In turn, `CC1(S(=O)(=O)O)CC(=O)c2ccccc2C1=O` (stereo not drawn) had an AC50 of 28.6 µM. Take `Clc1ccc(CSc2nncn2-c2ccc3c(c2)OCCO3)cc1`: the AC50 is 9.62 µM. `CCOC(=O)N1CCC(NC(=O)c2ccc3c(c2)N=C(C)c2c(C)ccc(C)c2S3)CC1` gave an AC50 of 1.67 µM. `CC(C)(C)c1cc(C(=O)NN)n(Cc2ccc(Cl)cc2Cl)n1` yielded an AC50 of more than 50 µM. Turning to `O=C1c2ccccc2C(=O)c2c1cccc2N(CCO)CCO`, the AC50 was more than 50 µM.

`COc1ccc(/C=N/NC(=O)c2cccnc2)cc1CSc1ccccn1` gave an AC50 of 28.2 µM.

As for `Cc1ccc2c(C)c3ccc4ccccc4c3c[n+]2c1`, the AC50 came out at 1.06 µM. `CCOC(=O)c1sc(Nc2nc(C)cc(C)n2)nc1C` showed an AC50 of 11.5 µM. `N#Cc1nc(NCC(F)F)nc(Nc2cc(F)cc(F)c2)n1` came in with a half-maximal activity concentration (AC50) of 16 µM. Regarding `CCc1c(C)nc2ncnn2c1NCCc1ccc(OC)cc1`, the AC50 turned out to be 34.6 µM. `COc1ccc2c(c1)C(O)C(CO)C(C(=O)O)C2` (stereo not drawn) yielded an AC50 of 9.28 µM. `COc1cc(/C=C(\C#N)c2nc3ccccc3[nH]2)cc(OC)c1O` displayed an AC50 of 7.88 µM. `O=C1c2cccc(NCCCNCCO)c2C(=O)c2cccc(NCCCNCCO)c21` displayed an AC50 of 16 µM. As to `COc1c(O[C@@H]2O[C@H](CO)[C@@H](O)[C@H](O)[C@H]2O)cc2c(c1OC)-c1ccc(SC)c(=O)cc1C(NC(C)=O)CC2` (stereo partly drawn), the AC50 is more than 50 µM. For `CCOc1ccc(C(=O)N[C@H](C(=O)Nc2cccc(S(=O)(=O)N3CCCCC3)c2)C(C)C)cc1`, the AC50 is 46.3 µM. For the compound `COc1cc2c(cc1OC)C(C)N(C(=O)Nc1cc(C)cc(C)c1)CC2` (stereo not drawn), the AC50 is 3.03 µM.

In turn, `N#C/C(=C\c1ccccn1)c1nc2ccccc2s1` yielded an AC50 of 24.2 µM.

For `CC[N+]1(CC)CC2=Cc3ccccc3CC2C1` (stereo not drawn), the AC50 worked out at 27.8 µM. In turn, `CCN(CC)CCn1nc2c3c(cccc3c1=O)-c1ccccc1-2` gave an AC50 of 1.1 µM. For `CC(=O)Nc1ccc(S(=O)(=O)Nc2cccc(-c3nc4cc(C)ccc4o3)c2)cc1`, the AC50 was found to be 8.92 µM.
